For two compounds, positive control result and IC50 results are on record in US7083814B2, “Antiviral substances from plant cuticular and epicuticular material” (Rutgers, The State University of New Jersey, priority 2000, dated 2006).

In data set [1] the test system is HIV-1RF. Nature of the data set: Anti-HIV-1 Cytoprotection Assay (XTT). To be noted: AZT control. On the technique in general: Tetrazolium dyes change colour on reduction, which living cells bring about.
The subject of data set [2] is herpes simplex virus type 1 strain HF. The data set can be described thus: Anti-HSV-1 Cytoprotection Assay (CPE reduction, MTS).
The nature of data set [3]: in vitro. To be noted: African green monkey.
From the text: Anti-HSV-1 Cytoprotection Assay.

Structures are written as SMILES.

In the case of `Cc1cn([C@H]2C[C@H](N=[N+]=[N-])[C@@H](CO)O2)c(=O)[nH]c1=O` [AZT], the positive control result in data set [1] is “within the expected parameters”.
Broadly, the IC50 is the midpoint of a concentration-inhibition curve. In the case of `Nc1nc2c(ncn2COCCO)c(=O)[nH]1` [Acyclovir], the IC50 was 2400 nM in data set [2] (Human alphaherpesvirus 1); 2400 nM in data set [2] (Human alphaherpesvirus 1, Vero); over 100 µM in data set [3].
